Source: patent US8747890B2 (priority 2009, dated 2014)

How the values were obtained:
[1] = human, whole blood, iv, 9 mg/m2
[2] = Extrapolation of blood Cmax to an 80 kg human after intravenous infusion; details: 440 mg/M^2 one hour infusion

Cmax [1]: 3400 ng/mL
Cmax extrapolated to humans [2]: 160000 ng/mL
SMILES: COc1cc(C=CC(=O)CC(=O)C=Cc2ccc(O)c(OC)c2)ccc1O [curcumin, 1,7-bis(4-hydroxy-3-methoxyphenyl)-1,6-heptadiene-3,5-dione]
